Results taken from patent publication US8883790B2, “Pharmaceutical combinations” (Astex Therapeutics Limited, priority 2006, dated 2014).
Structures can show the parent of a compound that is named as a salt. Each block holds one compound with its values, some of them ahead of it.

Tests used:
[1] = system: Acute Promyelocytic Leukemia (APL); conditions: APL patients; cited from earlier work
[2] = molecular target: T1, Human Hsp90a N-terminal domain (Homo sapiens, UniProt P07900); experiment: Isothermal titration calorimetry (ITC) binding to human Hsp90; conditions: pH 7.4
T1 construct: purification of the Human Hsp90a N-terminal domain; made in house
Procedure: The ability of the compounds for use in the combinations of the invention to bind to human Hsp90 proteins was determined using isothermal titration calorimetry.
Isothermal titration calorimetry (ITC) experiments were performed with a VP-ITC titration calorimeter (Microcal Inc., Northampton, Mass., USA). […] All solutions were filtered and degassed prior to a titration being carried out. The enthalpy change resulting from each injection of ligand was obtained through integration of the calorimetric signal. Data were analysed using Origin 7.0 (Microcal Software Inc., Northampton, Mass.). Heats of dilution were estimated using the final injections of each individual titration and subtracted before data fitting. Different ITC experimental formats were employed in order to obtain compound dissociation constants (Kd's) over a wide range of affinities. […] In this type of experiment the stoichiometry parameter (N) was locked at 1 for data fitting.

[3] = Solubility of acid addition salts in a liquid carrier (e.g. water); conditions: salts of 1-(2,6-difluorophenyl)-N-[3-(5-morpholin-4-ylmethyl-1H-benzimidazol-2-yl)-1H-pyrazol-4-yl]-urea
[4] = system: PKG; conditions: cited from earlier work
[5] = system: OVCAR-3 tumour cells; conditions: OVCAR-3 tumour cells in which PKB is amplified; concentrations of 50 and 100 microM; cited from earlier work
[6] = system: PKC; conditions: cited from earlier work
[7] = assay type: physicochemical
Source text: Samples for X-ray powder diffraction (XRPD) data collection were gently ground by marble mortar and loaded into a crystallographic capillary (from Hampton Research, Quartz or Glass Type 10, 0.4 or 0.7 mm diameter). Diffraction patterns were collected at room temperature using CuKa radiation (λ=1.5418 Å) from a Rigaku rotating anode RU3HR, Osmic blue confocal optics, ¼ c goniometer and a Rigaku HTC image plate detector. 2D Images were collected while spinning φ axis with a detector to crystal distance of 250 mm. Data collection was controlled by CrystalClear software and 2D images were converted to 1D plot (20 vs. Intensity) by Datasqueeze (intensity averaged over the azimuthal angle 0<χ<360° for 2θ range 3-30° in 0.02° steps). In house program AstexXRPD was used for manipulation and visualisation of 1D XRPD patterns.
It is nominally a tri-hydrate because there are 3 crystal water positions in the asymmetric unit, but they are not 100% occupied at room temperature and laboratory humidity. A saturated solution of form FL1 in methanol:water 9:1 was prepared at room temperature. Slow precipitation with approximately 4 volumes of acetone gave form FL2 which is stable in air.
A saturated solution of form FL1 in THF was prepared at room temperature. Slow precipitation with approximately 4 volumes of heptane gave form FL3.

[8] = Solid-state and dissolution properties of the L-lactate salt of the compound of formula (1) and its crystalline forms; assay type: physicochemical; conditions: for stability of crystalline form: crystalline forms of the L-lactate salt of the compound of formula (1)
Source text: The lactic acid salts of the compound of formula (1) exist in one unstable form (FL3) and two stable forms (FL1 and FL2).

[9] = Physicochemical properties of the crystalline lactate salt of compound (AA)
[10] = system: HCT116 cell line; experiment: Anti-proliferative activity, Alamar Blue assay; assay type: cell-based; conditions: Homo sapiens, HCT-116, 72 h
Procedure: The anti-proliferative activities of compounds for use in the combinations of the invention can be determined by measuring the ability of the compounds to inhibition of cell growth in a number of cell lines such as the human colon cancer cell line HCT116. […] The method is based on the ability of viable cells to reduce resazurin to its fluorescent product resorufin. […] The number of viable cells is determined by Alamar Blue assay as before. Cell lines can be obtained from the ECACC (European Collection of cell Cultures).

[11] = system: tubulin; conditions: relative to epothilone A or paclitaxel; cited from earlier work
[12] = mice; doses 10 times more than were needed for antitumour activity; cited from earlier work
[13] = antitumour agent; cited from earlier work
[14] = clinical studies; cited from earlier work
[15] = system: P-glycoprotein-overexpressing subline of CCRF-CEM; conditions: cited from earlier work
[16] = lactate (particularly L-lactate) salt of compound (AA)

Compound: CC1=C(/C=C/C(C)=C/C=C/C(C)=C/C(=O)O)C(C)(C)CCC1 [Tretinoin, all-trans retinoic acid]
- remissions induced [1]: 64-100%

- Kd [2]: < 0.1 µM
Compound: CC(C)c1cc(C(=O)N2Cc3ccc(CN4CCN(C)CC4)cc3C2)c(O)cc1O [Example 55, (2,4-dihydroxy-5-isopropyl-phenyl)-[5-(4-methyl-piperazin-1-ylmethyl)-1,3-dihydro-isoindol-2-yl]-methanone]

Compound: 1-(2,6-difluorophenyl)-N-[3-(5-morpholin-4-ylmethyl-1H-benzimidazol-2-yl)-1H-pyrazol-4-yl]-urea [D-glucuronate]
- solubility [3]: greater than 25 mg/ml

Compound: O=S(=O)(NCCNCC=C(c1ccccc1)c1ccccc1)c1cccc2cnccc12 [NL-71-101]
- IC50 [4]: 36 µM
- apoptosis induction [5]: induced apoptosis
- IC50 [6]: 104 µM

- Stability of crystal form [7]: stable in air
- stability of crystalline form [8]: stable hydrate
Compound: CC(C)c1cc(C(=O)N2Cc3ccc(CN4CCN(C)CC4)cc3C2)c(O)cc1O [FL2, (2,4-dihydroxy-5-isopropyl-phenyl)-[5-(4-methyl-piperazin-1-ylmethyl)-1,3-dihydro-isoindol-2-yl]-methanone L-lactate]

- hygroscopicity ([9]; lactate (particularly L-lactate) salt of 1-cyclopropyl-3-[3-(5-morpholin-4-ylmethyl-1H-benzoimidazol-2-yl)-1H-pyrazol-4-yl]-urea (compound (AA))): non-hygroscopic
- solubility in water [9, 16]: good solubility in water
- storage stability [9, 16]: stable to storage
Compound: CC(C)c1cc(C(=O)N2Cc3ccc(CN4CCN(C)CC4)cc3C2)c(O)cc1O [crystalline lactate salt, (2,4-dihydroxy-5-isopropyl-phenyl)-[5-(4-methyl-piperazin-1-ylmethyl)-1,3-dihydro-isoindol-2-yl]-methanone]

Compound: CC(C)c1cc(C(=O)N2Cc3ccc(C(=O)N4CCNCC4)cc3C2)c(O)cc1O [Example 54, (2,4-dihydroxy-5-isopropyl-phenyl)-[5-(piperazine-1-carbonyl)-1,3-dihydro-isoindol-2-yl]-methanone hydrochloride]
- IC50 [10]: < 1 µM

Compound: C/C(=C\c1csc(C)n1)[C@@H]1C[C@@H]2O[C@]2(C)CCC[C@H](C)[C@H](O)[C@@H](C)C(=O)C(C)(C)[C@@H](O)CC(=O)O1 [epothilone B]
- potency in inducing tubulin polymerization in vitro [11]: approximately twice as potent as epothilone A or paclitaxel

Compound: CCOC(=O)c1ccc2[nH]c3c(OC)c4[nH]c5ccc(C(=O)OCC)cc5c4cc3c2c1 [SR-13668]
- adverse effects [12]: no adverse effects

- hygroscopicity ([8]; L-lactate of (2,4-dihydroxy-5-isopropyl-phenyl)-[5-(4-methyl-piperazin-1-ylmethyl)-1,3-dihydro-isoindol-2-yl]-methanone): non-hygroscopic
Compound: CC(C)c1cc(C(=O)N2Cc3ccc(CN4CCN(C)CC4)cc3C2)c(O)cc1O [(2,4-dihydroxy-5-isopropyl-phenyl)-[5-(4-methyl-piperazin-1-ylmethyl)-1,3-dihydro-isoindol-2-yl]-methanone]
- rate of solubility ([8]; compared with free base and hydrochloric and sulphuric acid salts): better rate of solubility than the free base and other salts tested

Compound: CCN[C@H]1CO[C@@H](O[C@H]2[C@H](O[C@H]3C#C/C=C\C#C[C@]4(O)CC(=O)C(NC(=O)OC)=C3/C4=C\CSSSC)O[C@H](C)[C@@H](NO[C@H]3C[C@H](O)[C@H](SC(=O)c4c(C)c(I)c(O[C@@H]5O[C@@H](C)[C@H](O)[C@@H](OC)[C@H]5O)c(OC)c4OC)[C@@H](C)O3)[C@@H]2O)C[C@@H]1OC [Calicheamicin]
- potency relative to adriamycin [13]: over 1,000 times

Compound: CCCCCCCCCCCCCCCCCCOP(=O)([O-])OC1CC[N+](C)(C)CC1 [KRX-0401, Perifosine]
- half-life [14]: ~100 h

- solid-state stability in conditions of high relative humidity ([9]; lactate salt of compound (AA), gravimetric vapour sorption): stable anhydrous crystalline form
Compound: CC(C)c1cc(C(=O)N2Cc3ccc(CN4CCN(C)CC4)cc3C2)c(O)cc1O [lactate salt, (2,4-dihydroxy-5-isopropyl-phenyl)-[5-(4-methyl-piperazin-1-ylmethyl)-1,3-dihydro-isoindol-2-yl]-methanone]

- IC50 [10]: < 1 µM
Compound: CC(C)c1cc(C(=O)N2Cc3ccccc3C2)c(O)cc1O [Example 5, (1,3-Dihydro-isoindol-2-yl)-(2,4-dihydroxy-5-isopropyl-phenyl)-methanone]

Compound: C/C1=C/C[C@@H](/C(C)=C/c2csc(C)n2)OC(=O)C[C@H](O)C(C)(C)C(=O)[C@H](C)[C@@H](O)[C@@H](C)CCC1 [desoxyepothilone B]
- IC50 [15]: 0.017 µM

- stability of crystalline form [8]: stable
Compound: CC(C)c1cc(C(=O)N2Cc3ccc(CN4CCN(C)CC4)cc3C2)c(O)cc1O [FL1, (2,4-dihydroxy-5-isopropyl-phenyl)-[5-(4-methyl-piperazin-1-ylmethyl)-1,3-dihydro-isoindol-2-yl]-methanone L-lactate]
- Stability of crystal form [7]: stable in air and at 40 °C and 75% RH for at least one month

- Stability of crystal form [7]: transforms in air into form FL1
- Crystal form by XRPD after drying in air ([7]; sample dried in air for 2 days): conversion to form FL1 had occurred
- stability of crystalline form [8]: unstable
Compound: CC(C)c1cc(C(=O)N2Cc3ccc(CN4CCN(C)CC4)cc3C2)c(O)cc1O [FL3, (2,4-dihydroxy-5-isopropyl-phenyl)-[5-(4-methyl-piperazin-1-ylmethyl)-1,3-dihydro-isoindol-2-yl-]-methanone L-lactate]
